Results published in patent US10709129B2, “Synergistic combination of bis-(3-aminopropyl)dodecylamine and sorbic acid” (DDP SPECIALTY ELECTRONIC MATERIALS US, INC., priority 2016, dated 2020).

How the values were obtained:
[1] = tested on: Pseudomonas aeruginosa (DSMZ#939); test: Minimum Inhibitory Concentration (MIC) test and synergy index (Kull method), TSB pH 5; assay type: cell-based; conditions: DSM 939 / DSMZ939, Pseudomonas aeruginosa DSM# 939, 30° C., 48 hours, read-out: MIC results for single biocides
Experimental: (§1) The synergism of the biocides combination of the present invention was determined using the Minimum Inhibitory (MIC) test method described by Kull, F. C., et. al in Applied Microbiology 9:538-541 (1961). The formula to calculate the synergy index (SI) is SI=Qa/QA+Qb/QB Where • QA=minimum inhibitory concentration in ppm of compound A acting alone • Qa=minimum inhibitory concentration in ppm of compound A in the mixture. • QB=minimum inhibitory concentration in ppm of compound B acting alone. • Qb=minimum inhibitory concentration in ppm of compound B in the mixture. […] The Minimum Inhibitory Concentration Test (MIC) is designed to evaluate the lowest concentration of a biocide, biocide blend or biocide combination to prevent bacteria growing in a defined broth. […] The synergy testing was carried out as follows: • 1. The test was executed with a Hamilton MLStarPlus robot using automated turbidity reading with BioTek Synergy H4 plate reader. • 2. […] Reading of the results was carried out by measuring absorbance at 600 nm for each sample at the beginning of the test (tzero) and after incubation (tendpoint). tendpoint was chosen at 48 hours for bacteria and 72 hours for yeast. The difference in absorbance between tendpoint and tzero was used to determine growth (Δ>0.2) or no growth (Δ≤0.2).

[2] = tested on: Candida albicans (DSMZ#1386); test: as above; assay type: cell-based; conditions: DSM 1386 / DSMZ1386, Candida albicans DSM# 1386, 30° C., 72 hours, read-out: MIC results for single biocides
Experimental: as §1

In the case of CCCCCCCCCCCCN(CCCN)CCCN [BDA, bis-(3-aminopropyl)dodecylamine], the MIC [1] is reported as 200 µg/mL and the MIC [2] is reported as at least 260 µg/mL.

C/C=C/C=C/C(=O)O [SA, sorbic acid] gave an MIC [1] of 1230 µg/mL and an MIC [2] of 725 µg/mL.
